Test results taken from ChEMBL document CHEMBL1275456, “Metallo-beta-lactamase gene bla(IMP-15) in a class 1 integron, In95, from Pseudomonas aeruginosa clinical isolates from a hospital in Mexico” (2008).
≈ marks a conversion by molar mass, not a printed value.

Legend:
Assay type in all cases: functional
Pseudomonas aeruginosa [1] = assay: Antimicrobial activity against Pseudomonas aeruginosa clinical isolates assessed as resistant isolates by agar dilution method
Pseudomonas aeruginosa [2] = assay: Antimicrobial activity against Pseudomonas aeruginosa blood isolate 4667 containing PFGE clone A expressing beta-lactamase IMP-15 by broth microdilution method
Pseudomonas aeruginosa [3] = assay: Antimicrobial activity against Pseudomonas aeruginosa blood isolate 4677 containing PFGE clone A expressing beta-lactamase IMP-15 by broth microdilution method
Pseudomonas aeruginosa [4] = assay: Antimicrobial activity against Pseudomonas aeruginosa secretion isolate 4682-1 containing PFGE clone A expressing beta-lactamase IMP-15 by broth microdilution method
Pseudomonas aeruginosa [5] = assay: Antimicrobial activity against Pseudomonas aeruginosa catheter isolate 4696 containing PFGE clone A expressing beta-lactamase IMP-15 by broth microdilution method
Pseudomonas aeruginosa [6] = assay: Antimicrobial activity against Pseudomonas aeruginosa urine isolate 4698 containing PFGE clone A expressing beta-lactamase IMP-15 by broth microdilution method
Pseudomonas aeruginosa [7] = assay: Antimicrobial activity against Pseudomonas aeruginosa urine isolate 4706 containing PFGE clone A expressing beta-lactamase IMP-15 by broth microdilution method
Pseudomonas aeruginosa [8] = assay: Antimicrobial activity against Pseudomonas aeruginosa secretion isolate 4658 containing PFGE clone A1 expressing beta-lactamase IMP-15 by broth microdilution method
Pseudomonas aeruginosa [9] = assay: Antimicrobial activity against Pseudomonas aeruginosa pleural fluid isolate 4679 containing PFGE clone A1 expressing beta-lactamase IMP-15 by broth microdilution method
Pseudomonas aeruginosa [10] = assay: Antimicrobial activity against Pseudomonas aeruginosa secretion isolate 4688 containing PFGE clone A1 expressing beta-lactamase IMP-15 by broth microdilution method
Pseudomonas aeruginosa [11] = assay: Antimicrobial activity against Pseudomonas aeruginosa secretion isolate 4703 containing PFGE clone A1 expressing beta-lactamase IMP-15 by broth microdilution method
Pseudomonas aeruginosa [12] = assay: Antimicrobial activity against Pseudomonas aeruginosa blood isolate 4659 containing PFGE clone A2 expressing beta-lactamase IMP-15 by broth microdilution method
Pseudomonas aeruginosa [13] = assay: Antimicrobial activity against Pseudomonas aeruginosa catheter isolate 4680 containing PFGE clone A2 expressing beta-lactamase IMP-15 by broth microdilution method
Pseudomonas aeruginosa [14] = assay: Antimicrobial activity against Pseudomonas aeruginosa urine isolate 4663 expressing beta-lactamase IMP-15 by broth microdilution method
Pseudomonas aeruginosa [15] = assay: Antimicrobial activity against Pseudomonas aeruginosa secretion isolate 4682-1 containing PFGE clone A expressing beta-lactamase IMP-15 by broth microdilution method in presence of beta-lactamase inhibitor Tazobactam
Pseudomonas aeruginosa [16] = assay: Antimicrobial activity against Pseudomonas aeruginosa catheter isolate 4696 containing PFGE clone A expressing beta-lactamase IMP-15 by broth microdilution method in presence of beta-lactamase inhibitor Tazobactam
Pseudomonas aeruginosa [17] = assay: Antimicrobial activity against Pseudomonas aeruginosa urine isolate 4698 containing PFGE clone A expressing beta-lactamase IMP-15 by broth microdilution method in presence of beta-lactamase inhibitor Tazobactam; conditions: isolate 4698, Urine
Pseudomonas aeruginosa [18] = assay: Antimicrobial activity against Pseudomonas aeruginosa urine isolate 4706 containing PFGE clone A expressing beta-lactamase IMP-15 by broth microdilution method in presence of beta-lactamase inhibitor Tazobactam; conditions: isolate 4706, Urine
Pseudomonas aeruginosa [19] = assay: Antimicrobial activity against Pseudomonas aeruginosa secretion isolate 4658 containing PFGE clone A1 expressing beta-lactamase IMP-15 by broth microdilution method in presence of beta-lactamase inhibitor Tazobactam
Pseudomonas aeruginosa [20] = assay: Antimicrobial activity against Pseudomonas aeruginosa pleural fluid isolate 4679 containing PFGE clone A1 expressing beta-lactamase IMP-15 by broth microdilution method in presence of beta-lactamase inhibitor Tazobactam; conditions: isolate 4679, Pleural fluid
Pseudomonas aeruginosa [21] = assay: Antimicrobial activity against Pseudomonas aeruginosa secretion isolate 4688 containing PFGE clone A1 expressing beta-lactamase IMP-15 by broth microdilution method in presence of beta-lactamase inhibitor Tazobactam
Pseudomonas aeruginosa [22] = assay: Antimicrobial activity against Pseudomonas aeruginosa secretion isolate 4703 containing PFGE clone A1 expressing beta-lactamase IMP-15 by broth microdilution method in presence of beta-lactamase inhibitor Tazobactam
Pseudomonas aeruginosa [23] = assay: Antimicrobial activity against Pseudomonas aeruginosa blood isolate 4659 containing PFGE clone A2 expressing beta-lactamase IMP-15 by broth microdilution method in presence of beta-lactamase inhibitor Tazobactam
Pseudomonas aeruginosa [24] = assay: Antimicrobial activity against Pseudomonas aeruginosa catheter isolate 4680 containing PFGE clone A2 expressing beta-lactamase IMP-15 by broth microdilution method in presence of beta-lactamase inhibitor Tazobactam
Pseudomonas aeruginosa [25] = assay: Antimicrobial activity against Pseudomonas aeruginosa urine isolate 4663 expressing beta-lactamase IMP-15 by broth microdilution method in presence of beta-lactamase inhibitor Tazobactam; conditions: isolate 4663, Urine
Pseudomonas aeruginosa [26] = assay: Antimicrobial activity against Pseudomonas aeruginosa clinical isolates assessed as resistant isolates by agar dilution method in presence of beta-lactamase inhibitor Tazobactam
Pseudomonas aeruginosa [27] = assay: Antimicrobial activity against Pseudomonas aeruginosa blood isolate 4667 containing PFGE clone A expressing beta-lactamase IMP-15 by broth microdilution method in presence of beta-lactamase inhibitor Tazobactam
Pseudomonas aeruginosa [28] = assay: Antimicrobial activity against Pseudomonas aeruginosa blood isolate 4677 containing PFGE clone A expressing beta-lactamase IMP-15 by broth microdilution method in presence of beta-lactamase inhibitor Tazobactam

Molecule: NCC[C@H](O)C(=O)N[C@@H]1C[C@H](N)[C@@H](O[C@H]2O[C@H](CN)[C@@H](O)[C@H](O)[C@H]2O)[C@H](O)[C@H]1O[C@H]1O[C@H](CO)[C@@H](O)[C@H](N)[C@H]1O [AMIKACIN]
- Activity (Pseudomonas aeruginosa [1]): 51%
- MIC (Pseudomonas aeruginosa [2]): > 128 µg/mL
- MIC (Pseudomonas aeruginosa [3]): > 128 µg/mL
- MIC (Pseudomonas aeruginosa [4]): > 128 µg/mL
- MIC (Pseudomonas aeruginosa [5]): > 128 µg/mL
- MIC (Pseudomonas aeruginosa [6]; isolate 4698, Urine): > 128 µg/mL
- MIC (Pseudomonas aeruginosa [7]; isolate 4706, Urine): 64 µg/mL (≈ 109 µM)
- MIC (Pseudomonas aeruginosa [8]): > 128 µg/mL
- MIC (Pseudomonas aeruginosa [9]): > 128 µg/mL
- MIC (Pseudomonas aeruginosa [10]): > 128 µg/mL
- MIC (Pseudomonas aeruginosa [11]): 128 µg/mL (≈ 219 µM)
- MIC (Pseudomonas aeruginosa [12]): > 128 µg/mL
- MIC (Pseudomonas aeruginosa [13]): > 128 µg/mL
- MIC (Pseudomonas aeruginosa [14]; isolate 4663, Urine): 4 µg/mL (≈ 6.83 µM)

Molecule: C[C@H]1[C@H](NC(=O)/C(=N\OC(C)(C)C(=O)O)c2csc(N)n2)C(=O)N1S(=O)(=O)O [AZTREONAM]
- MIC (Pseudomonas aeruginosa [14]; isolate 4663, Urine): 8 µg/mL (≈ 18.4 µM)

Molecule: CC(C)(O/N=C(\C(=O)N[C@@H]1C(=O)N2C(C(=O)[O-])=C(C[n+]3ccccc3)CS[C@H]12)c1csc(N)n1)C(=O)O [CEFTAZIDIME]
- Activity (Pseudomonas aeruginosa [1]): 61%
- MIC (Pseudomonas aeruginosa [2]): > 128 µg/mL
- MIC (Pseudomonas aeruginosa [3]): > 128 µg/mL
- MIC (Pseudomonas aeruginosa [4]): > 128 µg/mL
- MIC (Pseudomonas aeruginosa [5]): > 128 µg/mL
- MIC (Pseudomonas aeruginosa [6]; isolate 4698, Urine): > 128 µg/mL
- MIC (Pseudomonas aeruginosa [7]; isolate 4706, Urine): > 128 µg/mL
- MIC (Pseudomonas aeruginosa [8]): > 128 µg/mL
- MIC (Pseudomonas aeruginosa [9]): > 128 µg/mL
- MIC (Pseudomonas aeruginosa [10]): > 128 µg/mL
- MIC (Pseudomonas aeruginosa [11]): > 128 µg/mL
- MIC (Pseudomonas aeruginosa [12]): > 128 µg/mL
- MIC (Pseudomonas aeruginosa [13]): > 128 µg/mL
- MIC (Pseudomonas aeruginosa [14]; isolate 4663, Urine): > 128 µg/mL

Molecule: C[C@@H](O)[C@H]1C(=O)N2C(C(=O)O)=C(SCCNC=N)C[C@H]12 [IMIPENEM ANHYDROUS]
- Activity (Pseudomonas aeruginosa [1]): 100%
- MIC (Pseudomonas aeruginosa [2]): > 128 µg/mL
- MIC (Pseudomonas aeruginosa [3]): > 128 µg/mL
- MIC (Pseudomonas aeruginosa [4]): 128 µg/mL (≈ 428 µM)
- MIC (Pseudomonas aeruginosa [5]): 128 µg/mL (≈ 428 µM)
- MIC (Pseudomonas aeruginosa [6]; isolate 4698, Urine): > 128 µg/mL
- MIC (Pseudomonas aeruginosa [7]; isolate 4706, Urine): 32 µg/mL (≈ 107 µM)
- MIC (Pseudomonas aeruginosa [8]): 128 µg/mL (≈ 428 µM)
- MIC (Pseudomonas aeruginosa [9]): 128 µg/mL (≈ 428 µM)
- MIC (Pseudomonas aeruginosa [10]): > 128 µg/mL
- MIC (Pseudomonas aeruginosa [11]): > 128 µg/mL
- MIC (Pseudomonas aeruginosa [12]): > 128 µg/mL
- MIC (Pseudomonas aeruginosa [13]): 128 µg/mL (≈ 428 µM)
- MIC (Pseudomonas aeruginosa [14]; isolate 4663, Urine): 32 µg/mL (≈ 107 µM)

Molecule: C[C@@H](O)[C@H]1C(=O)N2C(C(=O)O)=C(S[C@@H]3CN[C@H](C(=O)N(C)C)C3)[C@H](C)[C@H]12 [MEROPENEM]
- Activity (Pseudomonas aeruginosa [1]): 87%
- MIC (Pseudomonas aeruginosa [2]): 128 µg/mL (≈ 334 µM)
- MIC (Pseudomonas aeruginosa [3]): 128 µg/mL (≈ 334 µM)
- MIC (Pseudomonas aeruginosa [4]): 128 µg/mL (≈ 334 µM)
- MIC (Pseudomonas aeruginosa [5]): 128 µg/mL (≈ 334 µM)
- MIC (Pseudomonas aeruginosa [6]; isolate 4698, Urine): 128 µg/mL (≈ 334 µM)
- MIC (Pseudomonas aeruginosa [7]; isolate 4706, Urine): 128 µg/mL (≈ 334 µM)
- MIC (Pseudomonas aeruginosa [8]): 128 µg/mL (≈ 334 µM)
- MIC (Pseudomonas aeruginosa [9]): 128 µg/mL (≈ 334 µM)
- MIC (Pseudomonas aeruginosa [10]): 128 µg/mL (≈ 334 µM)
- MIC (Pseudomonas aeruginosa [11]): 128 µg/mL (≈ 334 µM)
- MIC (Pseudomonas aeruginosa [12]): 128 µg/mL (≈ 334 µM)
- MIC (Pseudomonas aeruginosa [13]): 128 µg/mL (≈ 334 µM)
- MIC (Pseudomonas aeruginosa [14]; isolate 4663, Urine): > 128 µg/mL

Molecule: CCN1CCN(C(=O)N[C@@H](C(=O)N[C@@H]2C(=O)N3[C@@H]2SC(C)(C)[C@@H]3C(=O)O)c2ccccc2)C(=O)C1=O [PIPERACILLIN]
- MIC (Pseudomonas aeruginosa [15]): 64 µg/mL
- MIC (Pseudomonas aeruginosa [16]): 64 µg/mL
- MIC (Pseudomonas aeruginosa [17]): 64 µg/mL
- MIC (Pseudomonas aeruginosa [18]): 64 µg/mL
- MIC (Pseudomonas aeruginosa [19]): 64 µg/mL
- MIC (Pseudomonas aeruginosa [20]): 64 µg/mL
- MIC (Pseudomonas aeruginosa [21]): 64 µg/mL
- MIC (Pseudomonas aeruginosa [22]): 64 µg/mL
- MIC (Pseudomonas aeruginosa [23]): 64 µg/mL
- MIC (Pseudomonas aeruginosa [24]): 64 µg/mL
- MIC (Pseudomonas aeruginosa [25]): 64 µg/mL
- Activity (Pseudomonas aeruginosa [1]): 19%
- Activity (Pseudomonas aeruginosa [26]): 14%
- MIC (Pseudomonas aeruginosa [2]): 64 µg/mL (≈ 124 µM)
- MIC (Pseudomonas aeruginosa [3]): 64 µg/mL (≈ 124 µM)
- MIC (Pseudomonas aeruginosa [4]): 64 µg/mL (≈ 124 µM)
- MIC (Pseudomonas aeruginosa [5]): 64 µg/mL (≈ 124 µM)
- MIC (Pseudomonas aeruginosa [6]; isolate 4698, Urine): 64 µg/mL (≈ 124 µM)
- MIC (Pseudomonas aeruginosa [7]; isolate 4706, Urine): 64 µg/mL (≈ 124 µM)
- MIC (Pseudomonas aeruginosa [8]): 64 µg/mL (≈ 124 µM)
- MIC (Pseudomonas aeruginosa [9]): 64 µg/mL (≈ 124 µM)
- MIC (Pseudomonas aeruginosa [10]): 64 µg/mL (≈ 124 µM)
- MIC (Pseudomonas aeruginosa [11]): 64 µg/mL (≈ 124 µM)
- MIC (Pseudomonas aeruginosa [12]): 64 µg/mL (≈ 124 µM)
- MIC (Pseudomonas aeruginosa [13]): 64 µg/mL (≈ 124 µM)
- MIC (Pseudomonas aeruginosa [14]; isolate 4663, Urine): 64 µg/mL (≈ 124 µM)
- MIC (Pseudomonas aeruginosa [27]): 64 µg/mL
- MIC (Pseudomonas aeruginosa [28]): 64 µg/mL

Molecule: GENTAMICIN
- Activity (Pseudomonas aeruginosa [1]): 54%
- MIC (Pseudomonas aeruginosa [2]): 128 µg/mL
- MIC (Pseudomonas aeruginosa [3]): > 128 µg/mL
- MIC (Pseudomonas aeruginosa [4]): > 128 µg/mL
- MIC (Pseudomonas aeruginosa [5]): > 128 µg/mL
- MIC (Pseudomonas aeruginosa [6]): > 128 µg/mL
- MIC (Pseudomonas aeruginosa [7]): > 128 µg/mL
- MIC (Pseudomonas aeruginosa [8]): 128 µg/mL
- MIC (Pseudomonas aeruginosa [9]): 128 µg/mL
- MIC (Pseudomonas aeruginosa [10]): > 128 µg/mL
- MIC (Pseudomonas aeruginosa [11]): > 128 µg/mL
- MIC (Pseudomonas aeruginosa [12]): > 128 µg/mL
- MIC (Pseudomonas aeruginosa [13]): 128 µg/mL
- MIC (Pseudomonas aeruginosa [14]): 128 µg/mL
